Laboratory results as given in paper PMC9650016 (Brain, Behavior, & Immunity - Health, 2022).

Biological target: T1, PPM1A (protein phosphatase magnesium-dependent 1A; PP2Cα) (Homo sapiens, UniProt P35813)
T1 sequence (P35813 2-382): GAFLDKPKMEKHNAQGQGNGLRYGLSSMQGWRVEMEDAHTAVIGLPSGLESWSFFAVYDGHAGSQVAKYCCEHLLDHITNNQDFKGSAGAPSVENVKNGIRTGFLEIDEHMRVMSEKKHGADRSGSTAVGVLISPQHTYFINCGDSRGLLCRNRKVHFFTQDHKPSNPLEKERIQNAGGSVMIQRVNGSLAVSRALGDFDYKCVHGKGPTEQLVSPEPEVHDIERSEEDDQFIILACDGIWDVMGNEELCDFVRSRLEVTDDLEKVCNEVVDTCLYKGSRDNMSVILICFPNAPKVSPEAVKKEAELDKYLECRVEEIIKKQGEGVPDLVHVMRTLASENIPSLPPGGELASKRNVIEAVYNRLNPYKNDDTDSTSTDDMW
Assay: microscale thermophoresis
Assay type: binding

- Kd: 2.69 µM
SMILES: CCCCCCCCCCCCCCCCOP(=O)([O-])OCC[N+](C)(C)C [MF, Miltefosine]
